Experimental data as given in ChEMBL document CHEMBL3885861, “Open TG-GATES”.

Organism: Rattus norvegicus
Experiment: Open TG-GATES - Regimen: Single
Type: toxicity, organism-based, Sprague-Dawley
Parameters: regimen Single, gender Male, age 6 weeks
Settings: in vivo, po, route gavage; for TC / TP / gamma-GTP / ALP / ALT / AST / BUN / CRE / Cl / IP / LDH / PL / RALB / TBIL / Ca / DBIL / K / Na: tissue Plasma; for APTT / Bas / Eos / Fbg / Hb / Ht / Lym / MCH / MCHC / MCV / Mono / PT / Plat / RBC / Ret / WBC: tissue Blood; for KIDNEY_L / KIDNEY_R / KIDNEY_TOTAL: tissue Kidney; for LIVER: tissue Liver
[1] = 0 mg/kg, 24 h, dose level Control

## C#C[C@]1(O)CC[C@H]2[C@@H]3CCc4cc(O)ccc4[C@H]3CC[C@@]21C [ETHINYL ESTRADIOL]
[1]
  TC: 84.6 mg/dL
  TP: 5.4 g/dL
  gamma-GTP: 0.8 IU/L
1 mg/kg, 3 h, dose level Low
  TERMINAL_BW: 195 g
  APTT: 16.3 s
  Bas: 0%
  Eos: 1%
  Fbg: 258.2 mg/dL
  Hb: 13 g/dL
  Ht: 39.1%
  Lym: 80.2%
  MCH: 21.9 pg
  MCHC: 33.4%
  MCV: 65.4 fL
  Mono: 3.4%
  PT: 12.3 s
  Plat: 118.9 x10_4/uL
  RBC: 598.2 x10_4/ul
  Ret: 9.4%
  WBC: 96.2 x10_2/uL
  KIDNEY_L: 0.8 g
  KIDNEY_R: 0.8 g
  KIDNEY_TOTAL: 1.6 g
  LIVER: 8.5 g
  ALP: 1630.2 IU/L
  ALT: 49 IU/L
  AST: 78.4 IU/L
  BUN: 11 mg/dL
  CRE: 0.2 mg/dL
  Cl: 106 meq/L
  IP: 9.2 mg/dL
  LDH: 54.2 IU/L
  PL: 146.4 mg/dL
  RALB: 2.6 g/dL
  TBIL: 0.038 mg/dL
  TC: 77.6 mg/dL
  TP: 5.5 g/dL
1 mg/kg, 6 h, dose level Low
  TERMINAL_BW: 195.9 g
  APTT: 15.3 s
  Bas: 0%
  Eos: 1%
  Fbg: 262.8 mg/dL
  Hb: 12.9 g/dL
  Ht: 38.6%
  Lym: 68.6%
  MCH: 21.8 pg
  MCHC: 33.5%
  MCV: 65.2 fL
  Mono: 2.4%
  PT: 12.4 s
  Plat: 110.9 x10_4/uL
  RBC: 591.6 x10_4/ul
  Ret: 9.8%
  WBC: 83.7 x10_2/uL
  KIDNEY_L: 0.8 g
  KIDNEY_R: 0.8 g
  KIDNEY_TOTAL: 1.7 g
  LIVER: 8 g
  ALP: 1545.4 IU/L
  ALT: 40.8 IU/L
  AST: 80.8 IU/L
  BUN: 8 mg/dL
  CRE: 0.2 mg/dL
  Ca: 10.5 mg/dL
  Cl: 109.4 meq/L
  DBIL: 0.01 mg/dL
  IP: 10 mg/dL
  K: 4 meq/L
  LDH: 42.2 IU/L
  Na: 144.6 meq/L
  PL: 112 mg/dL
  RALB: 2.4 g/dL
  TBIL: 0.04 mg/dL
  TC: 55 mg/dL
  TP: 5.2 g/dL
1 mg/kg, 9 h, dose level Low
  TERMINAL_BW: 196.1 g
  APTT: 15.5 s
  Bas: 0%
  Eos: 0.8%
  Fbg: 265.6 mg/dL
  Hb: 12.7 g/dL
  Ht: 37.6%
  Lym: 75.4%
  MCH: 21.9 pg
  MCHC: 33.7%
  MCV: 65.1 fL
  Mono: 2.4%
  PT: 12.8 s
  Plat: 110 x10_4/uL
  RBC: 578.2 x10_4/ul
  Ret: 9.3%
  WBC: 75.5 x10_2/uL
  KIDNEY_L: 0.9 g
  KIDNEY_R: 0.8 g
  KIDNEY_TOTAL: 1.7 g
  LIVER: 7.7 g
  ALP: 1698.8 IU/L
  ALT: 37.6 IU/L
  AST: 75.6 IU/L
  BUN: 9.2 mg/dL
  CRE: 0.2 mg/dL
  Ca: 10.6 mg/dL
  Cl: 109 meq/L
  DBIL: 0.012 mg/dL
  IP: 10.2 mg/dL
  K: 3.8 meq/L
  LDH: 40.6 IU/L
  Na: 145.2 meq/L
  PL: 96.4 mg/dL
  RALB: 2.5 g/dL
  TBIL: 0.042 mg/dL
  TC: 44.8 mg/dL
  TP: 5.2 g/dL
  gamma-GTP: 1.2 IU/L
1 mg/kg, 24 h, dose level Low
  TERMINAL_BW: 200.1 g
  APTT: 14.9 s
  Bas: 0%
  Eos: 1%
  Fbg: 224.6 mg/dL
  Hb: 13.1 g/dL
  Lym: 75.2%
  MCHC: 34%
  MCV: 62.5 fL
  Mono: 3.4%
  PT: 13.2 s
  Plat: 107.2 x10_4/uL
  RBC: 619.8 x10_4/ul
  Ret: 7.6%
  WBC: 93.7 x10_2/uL
  KIDNEY_L: 0.9 g
  KIDNEY_R: 0.9 g
  KIDNEY_TOTAL: 1.8 g
  LIVER: 9.3 g
  ALP: 2023.4 IU/L
  AST: 74.8 IU/L
  CRE: 0.2 mg/dL
  Ca: 10.8 mg/dL
  Cl: 106.4 meq/L
  DBIL: 0.024 mg/dL
  IP: 7.4 mg/dL
  K: 4 meq/L
  LDH: 59.6 IU/L
  Na: 142.8 meq/L
  PL: 113.6 mg/dL
  RALB: 2.5 g/dL
  TBIL: 0.034 mg/dL
  TC: 40.8 mg/dL
  TP: 5.3 g/dL
  gamma-GTP: 1.2 IU/L
